Test results reported in patent publication US12257247B2 (Monte Rosa Therapeutics AG, priority 2023, dated 2025).
Where two headings read alike, the source gives them in different places. Blank lines part the entries; values can stand above or below the molecule they belong to.

Target: T1, VAV1 (Homo sapiens, UniProt P15498+Q96SW2)
T1 construct: A heterozygous VAV1 C-terminal HiBiT knock-in pool was generated at Monte Rosa Therapeutics from a clonal Jurkat cell; endogenous in cells; host or cells: Jurkat clone stably expressing LgBiT, homozygous GSPT1-G575N; heterozygous VAV1-HiBiT knock-in pool
Experiment: VAV1 degradation activity, VAV1-HiBiT knock-in Jurkat luminescence assay (Example A, Table 1)
Type: cell-based
Conditions: VAV1-HiBiT knock-in Jurkat cells, luminescence read at 6 and 24 hours; for Dmax: Jurkat
Summary of the method: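 Luminescence was measured at 6 and 24 h after adding compound (10 μM stock) to VAV1-HiBiT knock-in Jurkat cells, which had been pre-incubated ~16 h at 37° C. in RPMI/10% FBS containing Endurazine. EC50 values came from control-normalised responses fitted to a 3-parameter logistic model with hillslope fixed at 1.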

[1] = read-out: VAV1 DC50 (nM), class

Structure (SMILES): O=C1CCC(c2cccc(-c3ccc(Cc4nccc(C(F)(F)F)n4)cc3)c2Cl)C(=O)N1 (centres unmarked) [Compound 347, 3-(2-chloro-4′-((4-(trifluoromethyl)pyrimidin-2-yl)methyl)-[1,1′-biphenyl]-3-yl)piperidine-2,6-dione]
Dmax (read-out: VAV1 Dmax %): 96.4%
Dmax (read-out: VAV1 Dmax %, class): > 90%
DC50 (read-out: VAV1 DC50): 17.1 nM
DC50 [1]: ≤ 100 nM

Structure (SMILES): O=C1CCC(c2cccc(-c3ccc(N4C(=O)OCCC45CC5)nc3)c2Cl)C(=O)N1 (centres unmarked) [Compound 351, 3-(2-chloro-3-(6-(5-oxo-6-oxa-4-azaspiro[2.5]octan-4-yl)pyridin-3-yl)phenyl)piperidine-2,6-dione]
Dmax (read-out: VAV1 Dmax %): 87%
Dmax (read-out: VAV1 Dmax %, class): 60 to 90%
DC50 (read-out: VAV1 DC50): 82.5 nM
DC50 [1]: ≤ 100 nM

Structure (SMILES): CN1CC(=O)N(c2ccc(-c3cccc(C4CCC(=O)NC4=O)c3Cl)cc2)CC12CC2 (centres unmarked) [Compound 352, 3-(2-chloro-4′-(4-methyl-6-oxo-4,7-diazaspiro[2.5]octan-7-yl)-[1,1′-biphenyl]-3-yl)piperidine-2,6-dione]
Dmax (read-out: VAV1 Dmax %): 82.3%
Dmax (read-out: VAV1 Dmax %, class): 60 to 90%
DC50 (read-out: VAV1 DC50): 65.3 nM
DC50 [1]: ≤ 100 nM

Structure (SMILES): Cc1cccc(=O)n1-c1ccc(-c2cccc(C3CCC(=O)NC3=O)c2Cl)cn1 (centres unmarked) [Compound 353, 3-(2-chloro-3-(6-methyl-2-oxo-2H-[1,2′-bipyridin]-5′-yl)phenyl)piperidine-2,6-dione]
Dmax (read-out: VAV1 Dmax %): 90.7%
Dmax (read-out: VAV1 Dmax %, class): > 90%
DC50 (read-out: VAV1 DC50): 62.1 nM
DC50 [1]: ≤ 100 nM

Structure (SMILES): O=C1CCC(c2cccc(-c3ccc(N4C(=O)OCC45CC5)nc3)c2Cl)C(=O)N1 (centres unmarked) [Compound 356, 3-(2-chloro-3-(6-(5-oxo-6-oxa-4-azaspiro[2.4]heptan-4-yl)pyridin-3-yl)phenyl)piperidine-2,6-dione]
Dmax (read-out: VAV1 Dmax %): 86%
Dmax (read-out: VAV1 Dmax %, class): 60 to 90%
DC50 (read-out: VAV1 DC50): 71.4 nM
DC50 [1]: ≤ 100 nM

Structure (SMILES): O=C1CCC(c2cccc(-c3ccc(N4C(=O)OCC45CCC5)nc3)c2Cl)C(=O)N1 (centres unmarked) [Compound 357, 3-(2-chloro-3-(6-(6-oxo-7-oxa-5-azaspiro[3.4]octan-5-yl)pyridin-3-yl)phenyl)piperidine-2,6-dione]
Dmax (read-out: VAV1 Dmax %): 90.8%
Dmax (read-out: VAV1 Dmax %, class): > 90%
DC50 (read-out: VAV1 DC50): 35.8 nM
DC50 [1]: ≤ 100 nM

These reach a lower DC50 (read-out: VAV1 DC50). Values come first.

Dmax (read-out: VAV1 Dmax %): 95.2%
Dmax (read-out: VAV1 Dmax %, class): > 90%
DC50 (read-out: VAV1 DC50): 11.7 nM
DC50 [1]: ≤ 100 nM
Structure (SMILES): O=C1CCC(c2cccc(-c3ccc(Cc4nccc(C(F)F)n4)cc3)c2Cl)C(=O)N1 (centres unmarked) [Compound 348, 3-(2-chloro-4′-((4-(difluoromethyl)pyrimidin-2-yl)methyl)-[1,1′-biphenyl]-3-yl)piperidine-2,6-dione]

Dmax (read-out: VAV1 Dmax %): 98.3%
Dmax (read-out: VAV1 Dmax %, class): > 90%
DC50 (read-out: VAV1 DC50): 2.21 nM
DC50 [1]: ≤ 100 nM
Structure (SMILES): O=C1CCC(c2cccc(-c3ccc(N4C(=O)NCCC45CCC5)cc3)c2Cl)C(=O)N1 (centres unmarked) [Compound 349, 3-(2-chloro-4′-(6-oxo-5,7-diazaspiro[3.5]nonan-5-yl)-[1,1′-biphenyl]-3-yl)piperidine-2,6-dione]

Dmax (read-out: VAV1 Dmax %): 97.3%
Dmax (read-out: VAV1 Dmax %, class): > 90%
DC50 (read-out: VAV1 DC50): 7.18 nM
DC50 [1]: ≤ 100 nM
Structure (SMILES): O=C1CCC(c2cccc(-c3ccc(N4C(=O)CCCC45CC5)c(F)c3)c2Cl)C(=O)N1 (centres unmarked) [Compound 350, 3-(2-chloro-3′-fluoro-4′-(5-oxo-4-azaspiro[2.5]octan-4-yl)-[1,1′-biphenyl]-3-yl)piperidine-2,6-dione]

Dmax (read-out: VAV1 Dmax %): 97.4%
Dmax (read-out: VAV1 Dmax %, class): > 90%
DC50 (read-out: VAV1 DC50): 13.3 nM
DC50 [1]: ≤ 100 nM
Structure (SMILES): O=C1CCC(c2cccc(-c3ccc(Oc4ccccn4)cc3)c2Cl)C(=O)N1 (centres unmarked) [Compound 354, 3-(2-chloro-4′-(pyridin-2-yloxy)-[1,1′-biphenyl]-3-yl)piperidine-2,6-dione]

Dmax (read-out: VAV1 Dmax %): 91.8%
Dmax (read-out: VAV1 Dmax %, class): > 90%
DC50 (read-out: VAV1 DC50): 15.9 nM
DC50 [1]: ≤ 100 nM
Structure (SMILES): O=C1CCC(c2cccc(-c3ccc(N4C(=O)CCC45COC5)cc3)c2Cl)C(=O)N1 (centres unmarked) [Compound 355, 3-(2-chloro-4′-(6-oxo-2-oxa-5-azaspiro[3.4]octan-5-yl)-[1,1′-biphenyl]-3-yl)piperidine-2,6-dione]
